Values of other authors as cited in US6495562B1, “Naphthamidine urokinase inhibitors” (Abbott Laboratories, priority 2000, dated 2002).

How the values were obtained:
[1] = test system: tumor metastasis; details: Anticancer Res. 1988, 8, 1373-1376
[2] = test system: angiogenesis; details: J. Cell Biol. 1991, 115[3 Pt 2], 402a

N=C(N)NC(=O)c1nc(Cl)c(N)nc1N [Amiloride]
inhibition of tumor metastasis in vivo [1]: inhibit
inhibition of angiogenesis in vitro [2]: inhibit
